Reference: patent US20260070902A1, “SULFONYL DERIVATIVES AS CCR6 INHIBITORS” (Hoffmann-La Roche Inc., priority 2022, published 2026)

Experiments:
Format in all cases: cell-based
[1] = biological target: T1, human CCR6 (Homo sapiens, UniProt P51684); test: CHO-K1 CCR6 chemotaxis assay towards CCL20; conditions: relative -Log IC50; CHO-K1 cells overexpressing human CCR6; migration towards 100 ng/ml CCL20; 4 h
T1 sequence (P51684 1-374): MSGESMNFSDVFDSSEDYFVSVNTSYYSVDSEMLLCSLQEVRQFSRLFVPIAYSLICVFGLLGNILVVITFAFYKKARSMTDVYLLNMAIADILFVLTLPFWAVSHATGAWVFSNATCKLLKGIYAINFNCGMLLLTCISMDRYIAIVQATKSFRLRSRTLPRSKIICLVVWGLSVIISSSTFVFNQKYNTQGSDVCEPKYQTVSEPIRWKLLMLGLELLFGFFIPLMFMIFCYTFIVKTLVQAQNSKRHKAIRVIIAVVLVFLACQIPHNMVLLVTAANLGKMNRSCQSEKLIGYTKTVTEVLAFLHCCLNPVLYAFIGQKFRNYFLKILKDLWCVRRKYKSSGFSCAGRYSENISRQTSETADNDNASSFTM
Outline: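 Human CCR6-overexpressing CHO-K1 cells (2*10^6 cells/ml) were preincubated 30 min at 37 °C with compound (0.2% DMSO), then allowed to migrate 4 h through 8 µm Transwell pores toward 100 ng/ml CCL20. Migrated cells were counted by CellTiter Glo. −Log IC50 came from four-parameter fits normalised to DMSO without/with CCL20.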

[2] = test system: Human CD4+ T cells; test: CD4+ T cells chemotaxis assay towards CCL20; conditions: Homo sapiens, CD4+ T cell, 3 h, relative -Log IC50, human CD4+ T cells stimulated with anti-CD3 and anti-CD28, migration towards 150 ng/ml CCL20
Outline: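 Donor cells were stimulated overnight with anti-CD3/anti-CD28, then preincubated with compound for 30 min at 37° C (0.2% DMSO final). Migration through […]-pore Transwells toward 150 ng/ml CCL20 ran for 3 h at 37° C. Migrated cells were counted by CellTiter Glo, and relative −Log IC50 came from a four-parameter fit of % inhibition.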

[3] = biological target: T1, human CCR6; test: Human CCR6-CRE reporter assay; parameters: The second construct contained the open reading frame of human CCR6 in the pUNO1 backbone; host or cells: 293FT cells; conditions: relative -Log IC50; 293FT cells transfected with human CCR6 and CRE-luciferase reporter; 6 μM Forskolin, 6 nM CCL20; 5 h
Outline: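 293FT cells transiently co-transfected with human CCR6 and a CRE-luc2P reporter, used 48 h later. Compounds incubated with cells in medium containing 6 μM Forskolin and 6 nM CCL20 (assay-medium levels), 0.1% DMSO final, 5 h at 37° C; luminescence read, relative −Log IC50 from four-parameter fit.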

Row | SMILES | IC50 [1] [nM] | IC50 [2] [nM] | IC50 [3] [nM]
1 | CC(C)c1nnc2ccc(-c3ccc(S(=O)(=O)N4CCC(Nc5ccc(S(F)(F)(F)(F)F)cn5)CC4)cc3)cn12 [Example 172, 5-(pentafluoro-λ^6-sulfanyl)-N-(1-{4-[3-(propan-2-yl)-[1,2,4]triazolo[4,3-a]pyridin-6-yl]benzenesulfonyl}piperidin-4-yl)pyridin-2-amine] | 7.94 | 1 | 20
2 | NC(=O)c1cnc2ccc(-c3ccc(S(=O)(=O)[C@H]4CC[C@H](Nc5ccc(S(F)(F)(F)(F)F)cc5)CC4)cc3)cn12 [Example 34, 6-(4-{[trans-4-{[4-(pentafluoro-λ^6-sulfanyl)phenyl]Amino}cyclohexyl]sulfonyl}phenyl)imidazo[1,2-a]pyridine-3-carboxamide] | 39.8 | 63.1 | 200
3 | CC(C)c1nnc2ccc(-c3ccc(S(=N)(=O)[C@H]4CC[C@H](Nc5ccc(S(F)(F)(F)(F)F)cc5)CC4)cc3)cn12 (relative stereo) [Example 102, {4-[3-(propan-2-yl)-[1,2,4]triazolo[4,3-a]pyridin-6-yl]phenyl}[trans-4-{[4-(pentafluoro-λ^6-sulfanyl)phenyl]Amino}cyclohexyl](imino)-λ^6-sulfanone] | 158 | 50.1 | 126
4 | NC(=O)c1cc(-c2ccc(S(=O)(=O)[C@H]3CC[C@H](Nc4ccc(S(F)(F)(F)(F)F)cc4)CC3)cc2)ccn1 [Example 10, 4-(4-{[trans-4-{[4-(pentafluoro-λ^6-sulfanyl)phenyl]Amino}cyclohexyl]sulfonyl}phenyl)pyridine-2-carboxamide] | 5.01 | 2 | 79.4
5 | O=S(=O)(c1ccc(-c2ccc3nccn3c2)cc1)[C@H]1CC[C@@H](Nc2ccc(S(F)(F)(F)(F)F)cc2)CC1 [Example 18, 4-(pentafluoro-λ^6-sulfanyl)-N-[cis-4-(4-{imidazo[1,2-a]pyridin-6-yl}benzenesulfonyl)cyclohexyl]aniline] | 200 | 6.31 | 158
6 | O=S(=O)(c1ccc(-c2ccc3nccn3c2)cc1)N1CCC(Nc2ccc(S(F)(F)(F)(F)F)cn2)CC1 [Example 173, N-[1-(4-{imidazo[1,2-a]pyridin-6-yl}benzenesulfonyl)piperidin-4-yl]-5-(pentafluoro-λ^6-sulfanyl)pyridin-2-amine] | 3.98 | 2.51 | 31.6
7 | NC(=O)c1cc(-c2ccc(S(=O)(=O)N3CCC(Nc4ccc(S(F)(F)(F)(F)F)cn4)CC3)cc2)ccn1 [Example 175, 4-{4-[(4-{[5-(pentafluoro-λ^6-sulfanyl)pyridin-2-yl]amino}piperidin-1-yl)sulfonyl]phenyl}pyridine-2-carboxamide] | 10 | 5.01 | 20
8 | Cc1nnc2ccc(-c3ccc(S(=O)(=O)[C@H]4CC[C@H](Nc5ccc(S(F)(F)(F)(F)F)cn5)CC4)cc3)cn12 [Example 179, 5-(pentafluoro-λ^6-sulfanyl)-N-[trans-4-(4-{3-methyl-[1,2,4]triazolo[4,3-a]pyridin-6-yl}benzenesulfonyl)cyclohexyl]pyridin-2-amine] | 10 | 6.31 | 79.4
9 | Cc1nnc2ccc(-c3ccc(S(=O)(=O)N4CCC(Nc5ccc(S(F)(F)(F)(F)F)cn5)CC4)cc3)cn12 [Example 174, N-[1-(4-{3-methyl-[1,2,4]triazolo[4,3-a]pyridin-6-yl}benzenesulfonyl)piperidin-4-yl]-5-(pentafluoro-λ^6-sulfanyl)pyridin-2-amine] | 5.01 | 2.51 | 25.1
